Article PMC11474200, “Probing the nucleobase selectivity of RNA polymerases with dual-coding substrates” (The Journal of Biological Chemistry, 2024)
Where two headings read alike, the source gives them in different places.

Legend:
Type in all cases: biochemical
Mt-DdRP = target: T1, Mt-DdRP (Homo sapiens, UniProt O00411); assay: single-nucleotide addition, denaturing PAGE; conditions: elongation complex, 100 μM analog, 1 min, 10 mM MgCl2, pH 7.5, 25 °C
T1 construct: gene POLRMT; expressed in E. coli from pRP009, Ni-, heparin and S-sepharose purified; in assembled elongation complex
T1 sequence (O00411 42-1230): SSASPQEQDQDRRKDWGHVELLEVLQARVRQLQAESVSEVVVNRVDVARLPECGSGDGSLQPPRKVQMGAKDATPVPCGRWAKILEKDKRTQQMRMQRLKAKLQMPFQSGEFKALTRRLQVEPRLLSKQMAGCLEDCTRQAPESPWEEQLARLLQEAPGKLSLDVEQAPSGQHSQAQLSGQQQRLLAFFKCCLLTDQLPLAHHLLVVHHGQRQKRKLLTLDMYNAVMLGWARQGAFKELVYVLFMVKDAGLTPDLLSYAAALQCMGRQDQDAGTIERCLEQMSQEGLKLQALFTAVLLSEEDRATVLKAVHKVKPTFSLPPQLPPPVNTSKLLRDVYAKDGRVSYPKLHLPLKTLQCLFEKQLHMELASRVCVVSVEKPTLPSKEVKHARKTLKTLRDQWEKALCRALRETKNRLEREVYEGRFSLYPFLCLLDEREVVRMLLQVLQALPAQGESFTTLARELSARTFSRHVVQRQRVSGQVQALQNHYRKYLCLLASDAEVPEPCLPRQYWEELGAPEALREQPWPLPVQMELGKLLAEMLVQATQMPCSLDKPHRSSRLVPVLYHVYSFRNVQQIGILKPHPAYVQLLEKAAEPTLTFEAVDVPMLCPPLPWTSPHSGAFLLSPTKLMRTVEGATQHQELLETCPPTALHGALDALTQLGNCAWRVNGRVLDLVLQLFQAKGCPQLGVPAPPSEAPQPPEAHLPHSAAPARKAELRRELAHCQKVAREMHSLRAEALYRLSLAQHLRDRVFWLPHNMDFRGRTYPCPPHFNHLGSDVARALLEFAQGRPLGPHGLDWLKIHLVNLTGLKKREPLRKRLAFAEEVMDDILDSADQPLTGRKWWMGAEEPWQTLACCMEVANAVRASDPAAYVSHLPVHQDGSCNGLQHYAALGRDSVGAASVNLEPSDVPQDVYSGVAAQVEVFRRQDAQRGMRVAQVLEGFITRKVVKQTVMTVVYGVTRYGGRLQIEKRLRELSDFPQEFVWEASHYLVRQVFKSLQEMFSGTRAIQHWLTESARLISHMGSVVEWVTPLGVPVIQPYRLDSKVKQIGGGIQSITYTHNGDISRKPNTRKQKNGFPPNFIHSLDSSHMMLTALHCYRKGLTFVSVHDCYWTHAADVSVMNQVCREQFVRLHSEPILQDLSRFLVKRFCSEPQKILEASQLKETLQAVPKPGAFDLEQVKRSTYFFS

Ec-DdRP [1] = target: T2, Ec-DdRP (Escherichia coli, UniProt P0A8T7+P0A8V2)
T2 construct: gene rpoB; multisubunit RNAP without added sigma, in assembled elongation complex; expressed in E. coli T7 Express from pVS10, Ni-, heparin and Q-sepharose purified; with DNA-directed RNA polymerase subunit alpha; DNA-directed RNA polymerase subunit omega
T2 sequence (P0A7Z4 whole entry): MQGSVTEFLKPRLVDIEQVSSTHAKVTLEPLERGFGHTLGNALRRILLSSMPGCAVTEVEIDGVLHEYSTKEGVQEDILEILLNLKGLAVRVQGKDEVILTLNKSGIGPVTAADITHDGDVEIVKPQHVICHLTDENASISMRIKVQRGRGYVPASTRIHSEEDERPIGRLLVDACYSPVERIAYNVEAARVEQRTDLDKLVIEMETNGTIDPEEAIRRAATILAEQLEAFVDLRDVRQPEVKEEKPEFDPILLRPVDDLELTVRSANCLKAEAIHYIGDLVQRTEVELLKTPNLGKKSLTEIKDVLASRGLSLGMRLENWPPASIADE
T2 sequence (P0A8T7 whole entry): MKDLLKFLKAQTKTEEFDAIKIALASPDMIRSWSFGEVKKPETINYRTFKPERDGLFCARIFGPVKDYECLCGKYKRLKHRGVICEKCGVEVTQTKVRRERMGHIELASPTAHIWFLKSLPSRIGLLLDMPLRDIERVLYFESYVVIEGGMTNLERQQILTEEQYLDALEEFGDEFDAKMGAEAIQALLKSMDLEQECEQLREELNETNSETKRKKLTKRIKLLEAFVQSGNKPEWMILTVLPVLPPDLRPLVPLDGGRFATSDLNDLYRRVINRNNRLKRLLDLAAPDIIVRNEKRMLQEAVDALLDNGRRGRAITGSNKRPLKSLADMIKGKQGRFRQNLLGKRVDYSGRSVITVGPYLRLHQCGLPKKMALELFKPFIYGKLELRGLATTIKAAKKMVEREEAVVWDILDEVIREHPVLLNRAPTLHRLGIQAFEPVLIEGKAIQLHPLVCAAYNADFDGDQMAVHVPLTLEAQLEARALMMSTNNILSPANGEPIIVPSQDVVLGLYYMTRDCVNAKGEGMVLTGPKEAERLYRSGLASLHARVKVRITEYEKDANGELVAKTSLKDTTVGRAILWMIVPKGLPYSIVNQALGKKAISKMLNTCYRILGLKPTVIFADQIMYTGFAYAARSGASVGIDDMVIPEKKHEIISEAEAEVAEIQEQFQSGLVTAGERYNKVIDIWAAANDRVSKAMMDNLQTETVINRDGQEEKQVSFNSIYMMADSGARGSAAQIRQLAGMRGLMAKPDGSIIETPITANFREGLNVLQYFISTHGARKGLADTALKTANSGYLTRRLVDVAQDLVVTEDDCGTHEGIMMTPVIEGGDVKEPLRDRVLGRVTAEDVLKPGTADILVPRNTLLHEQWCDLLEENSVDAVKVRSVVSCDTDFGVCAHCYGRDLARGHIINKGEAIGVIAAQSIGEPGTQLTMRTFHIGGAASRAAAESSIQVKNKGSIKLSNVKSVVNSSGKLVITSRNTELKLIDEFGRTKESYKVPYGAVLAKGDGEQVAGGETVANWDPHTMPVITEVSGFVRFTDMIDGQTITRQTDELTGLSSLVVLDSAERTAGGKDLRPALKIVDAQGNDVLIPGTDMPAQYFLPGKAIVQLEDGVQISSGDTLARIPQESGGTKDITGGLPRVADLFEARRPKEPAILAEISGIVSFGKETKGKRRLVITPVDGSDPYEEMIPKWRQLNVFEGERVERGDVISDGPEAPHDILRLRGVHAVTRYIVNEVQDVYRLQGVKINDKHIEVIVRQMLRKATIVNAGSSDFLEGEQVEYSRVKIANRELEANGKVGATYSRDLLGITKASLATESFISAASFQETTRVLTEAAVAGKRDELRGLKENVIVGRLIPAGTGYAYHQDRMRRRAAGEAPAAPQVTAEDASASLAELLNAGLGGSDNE
T2 sequence (P0A8V2 whole entry): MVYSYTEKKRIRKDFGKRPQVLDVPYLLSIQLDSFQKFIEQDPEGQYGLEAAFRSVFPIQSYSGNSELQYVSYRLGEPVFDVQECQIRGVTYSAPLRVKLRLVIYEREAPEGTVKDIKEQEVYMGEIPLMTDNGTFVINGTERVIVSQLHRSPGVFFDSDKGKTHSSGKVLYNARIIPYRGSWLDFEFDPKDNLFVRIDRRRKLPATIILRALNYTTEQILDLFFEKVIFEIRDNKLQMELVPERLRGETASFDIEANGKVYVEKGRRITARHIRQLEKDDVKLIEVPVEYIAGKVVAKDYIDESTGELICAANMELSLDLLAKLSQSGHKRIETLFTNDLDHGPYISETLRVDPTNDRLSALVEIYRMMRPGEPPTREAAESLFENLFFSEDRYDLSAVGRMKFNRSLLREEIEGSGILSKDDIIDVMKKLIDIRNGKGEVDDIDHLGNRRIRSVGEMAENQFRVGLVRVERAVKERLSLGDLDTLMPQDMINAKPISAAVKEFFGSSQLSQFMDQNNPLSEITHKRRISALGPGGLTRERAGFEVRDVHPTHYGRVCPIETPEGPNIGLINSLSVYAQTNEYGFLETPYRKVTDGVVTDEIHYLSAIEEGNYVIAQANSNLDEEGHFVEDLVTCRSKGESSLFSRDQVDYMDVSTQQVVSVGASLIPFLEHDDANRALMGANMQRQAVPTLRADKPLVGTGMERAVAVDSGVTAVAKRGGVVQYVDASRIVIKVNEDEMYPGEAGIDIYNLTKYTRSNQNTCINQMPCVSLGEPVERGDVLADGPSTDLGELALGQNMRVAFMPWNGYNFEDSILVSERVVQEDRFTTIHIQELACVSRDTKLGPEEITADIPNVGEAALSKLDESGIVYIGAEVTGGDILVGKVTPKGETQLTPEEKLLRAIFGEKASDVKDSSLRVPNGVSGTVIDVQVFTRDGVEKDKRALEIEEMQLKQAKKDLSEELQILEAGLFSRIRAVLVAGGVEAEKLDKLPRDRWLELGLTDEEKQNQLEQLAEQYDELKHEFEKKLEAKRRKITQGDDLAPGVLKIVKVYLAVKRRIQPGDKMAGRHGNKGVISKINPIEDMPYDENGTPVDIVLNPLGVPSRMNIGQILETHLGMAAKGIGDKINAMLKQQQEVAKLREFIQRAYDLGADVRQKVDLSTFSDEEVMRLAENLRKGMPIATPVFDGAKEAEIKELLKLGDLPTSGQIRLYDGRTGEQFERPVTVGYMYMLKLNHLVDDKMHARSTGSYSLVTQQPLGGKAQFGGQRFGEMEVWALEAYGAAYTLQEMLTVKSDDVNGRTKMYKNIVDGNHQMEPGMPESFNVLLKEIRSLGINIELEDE
T2 sequence (P0A800 2-91, further chain): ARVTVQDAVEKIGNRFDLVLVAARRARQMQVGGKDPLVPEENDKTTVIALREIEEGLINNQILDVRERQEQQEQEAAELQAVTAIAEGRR

Ec-DdRP [2] = target: T2, Ec-DdRP; remark: listed apart in the source
[3] = elongation complex, FOR as A-substitute (incorporation rate 27 s^-1), 10 mM MgCl2, pH 7.5, 25 °C

With `NC(=O)c1[nH]nc([C@@H]2O[C@H](COP(=O)(O)OP(=O)(O)OP(=O)(O)O)[C@@H](O)[C@H]2O)c1O` (mixture of isomers) [PYR 5′-triphosphate] as the molecule, how does the “single-nucleotide addition, denaturing PAGE” value (Mt-DdRP; incorporated in place of uridine) read?
The value was “all RNAPs in our set incorporated PYR in place of uridine”.

How did the kon (Ec-DdRP [1]) turn out when `Nc1ncnc2c1ncn2[C@@H]1O[C@H](COP(=O)(O)OP(=O)(O)OP(=O)(O)O)[C@@H](O)[C@H]1O` [ATP] was run?
Its kon is 1.2e+06 to 1.5e+06 M⁻¹ s⁻¹.

What about the koff (Ec-DdRP [2]) of the same molecule?
Its koff is 5.6 to 19 s⁻¹.

Which results are given for `Nc1ncnc2c([C@@H]3O[C@H](COP(=O)(O)OP(=O)(O)OP(=O)(O)O)[C@@H](O)[C@H]3O)n[nH]c12` [FOR triphosphate]?
single-nucleotide addition, denaturing PAGE (Mt-DdRP; incorporated in place of adenine): FOR was incorporated in place of adenine by all RNAPs in our set; kon (Ec-DdRP [1]; [3]): 3.1e+06 to 6.6e+06 M⁻¹ s⁻¹; koff (Ec-DdRP [2]; [3]): 74 to 220 s⁻¹
